What was measured:
human HbS = settings: transgenic mice producing human HbS, cited from earlier work
hemoglobin = hemoglobin (Homo sapiens, UniProt P68871+P69905); settings: in vitro and in vivo; cited from earlier work
purified HBS = target: T1, purified HBS (Homo sapiens, UniProt P68871+P69905, E7V); test: Polymerization assay (delay time of HbS polymerization); type: biochemical, human (homozygous sickle cell patients); settings: percent delay (% DT) vs HBS alone; 50 μM purified HBS, 1.8 M potassium phosphate pH 7.4
T1 construct: HbS was purified by a modified procedure; from tissue; host or cells: blood of homozygous sickle cell patients (CHORI); for the polymerization assay purified by the CRO VIRUSYS
Description: Polymerization assays are carried out in vitro using purified HBS exchanged into 1.8 M potassium phosphate buffer at pH 7.4. Using a slightly modified protocol (Antonini and Brunori, 1971), HbS is purified by the CRO VIRUSYS, from blood obtained from homozygous sickle cell patients through the Hemoglobinopathy Center at Children's Hospital Oakland Research Institute (CHORI) with Institutional Review Board approval. Compounds are prepared in 100% DMSO and a desired amount is added to 50 μM of purified HBS at a final DMSO concentration of 0.3%. Final potassium phosphate concentration is adjusted to 1.8 M using a combination of 2.5 M potassium phosphate stock solution and water at pH 7.4. The reaction mixture is incubated for an hour at 37° C. and then transferred into a 24-well plate for deoxygenation in a glove box containing 99.5% nitrogen and 0.5% oxygen. The 24-well plate is not covered and incubated at 4° C. on a plate cooler inside the glove box for one and a half hours. Fifty μL of the reaction mixture is transferred into a 96-well plate and the absorbance at 700 nm is measured every minute for one hour at 37° C. in a plate reader located inside the glove box. A plot of the absorbance against time is fitted using a Boltzman sigmoidal fit and the delay time (from zero to time at half Vmax) is measured. To compare and rank compounds, delay times are expressed as percent delay (% DT), which is defined as the difference in delay times for HBS/compound and HBS alone multiplied by 100 and divided by the delay time for HBS alone.
Compounds listed below have been tested in the polymerization assay. Activity ranges are defined by the number of dagger (†) symbols indicated. † denotes activity ≥40% but ≤80%; †† denotes activity >80% but ≤120%; ††† denotes activity >120% but ≤140%; †††† denotes activity >160%.

whole blood = test: Whole blood assay: oxygen equilibrium curves of whole blood; type: cell-based, human (homozygous sickle cell patients); settings: compound at 1000 μM; hematocrit 20%, 1 hour at 37° C.
How it was run: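 Homozygous sickle cell patient blood, hematocrit 20% in autologous plasma, incubated 1 h at 37° C with or without compound (1000 μM unless noted). Diluted into Hemox buffer pH 7.4, oxygenated then deoxygenated with nitrogen; OEC fitted to Hill model for p50, reported as delta p50%.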

HbS/A = target: T2, HbS/A (Homo sapiens, UniProt P68871+P69905, E7V); test: R/T assay (relaxed-to-tense transition under deoxygenated conditions); type: biochemical, human (homozygous sickle cell patients); settings: 3 μM HbS/A, % R remaining vs no treatment
T2 construct: A mixture of HbS/A was purified from blood; from tissue; host or cells: blood of homozygous sickle cell patients (CHORI)
How it was run: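 Purified HbS/A (3 μM final) incubated 1 hr at 37° C with compounds (3 μM to 100 μM) in potassium phosphate buffer pH 7.4 with 30 μM DPG, then deoxygenated under N2 with 300–700 nm spectra every 5 min for 2 hours. Delta R is % R state retained versus untreated, by linear regression over all wavelengths.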

[1] = target: T3, purified Hemoglobin S (HbS) (Homo sapiens, UniProt P68871+P69905, E7V); test: Modulation of hemoglobin oxygen affinity: oxygen equilibrium curves (HEMOX) in purified HbS; type: biochemical, human (homozygous sickle cell patients); settings: compound at 30 μM; 25 μM purified HbS, 45 min at 37° C.
T3 construct: HbS was purified by a modified procedure; from tissue; host or cells: blood of homozygous sickle cell patients (CHORI); for the polymerization assay purified by the CRO VIRUSYS
How it was run: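 HbS from homozygous sickle cell patient blood, 25 μM in HEMOX buffer pH 7.4, incubated 45 min at 37° C with compound (30 μM unless noted). Air-saturated then deoxygenated with N2; p50 from Hill fit; delta p50% = (control p50 − treated p50)/control p50 × 100.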

Compound	melting point [°C]	survival times (human HbS; extreme hypoxia (5% oxygen))	hypoxia-induced sickled red blood cells (human HbS; hypoxic conditions, compared to the non-treated mice)	hemoglobin modulator activity (hemoglobin)	% delta Delay (purified HBS)	delta p50% Values for Whole Blood Assay (whole blood)	delta R (HbS/A; compound at 30 μM)	delta p50% [1]	delta R (HbS/A; compound at 9 μM)
Cl.O=Cc1ccncc1OCc1ccc(C(=O)O)cn1	192 to 194	–	–	–	–	–	–	–	–
O=Cc1ccc(CO)o1 [Compound 5HMF, 5-hydroxymethyl-2-furfuraldehyde]	–	significantly improved survival times	reduced amounts of hypoxia-induced sickled red blood cells	potent hemoglobin modulator both in vitro and in vivo	–	–	–	–	–
CC(C)n1nccc1-c1ncccc1COc1cncc(O)c1C=O [Compound 186, 3-hydroxy-5-((2-(1-isopropyl-1H-pyrazol-5-yl)pyridin-3-yl)methoxy)isonicotinaldehyde]	–	–	–	–	†††† (activity >160%)	+++ (a delta p50% of 50 or greater)	+++ (a delta R of 50 or greater)	+++ (a delta p50% of 50 or greater)	–
O=Cc1c(O)cncc1OCc1ccccc1 [Compound 187, 3-(benzyloxy)-5-hydroxyisonicotinaldehyde]	–	–	–	–	†† (activity >80% but ≤120%)	+ (a delta p50% of between 0 and 29)	–	++ (a delta p50% of between 30 and 50)	+++ (a delta R of 50 or greater)
COc1cc(C=O)c(OCc2cccnc2-c2ccnn2C2CCC2)cn1 [Compound 195, 5-((2-(1-cyclobutyl-1H-pyrazol-5-yl)pyridin-3-yl)methoxy)-2-methoxyisonicotinaldehyde]	–	–	–	–	††† (activity >120% but ≤140%)	+++ (a delta p50% of 50 or greater)	+++ (a delta R of 50 or greater)	+++ (a delta p50% of 50 or greater)	–
COc1cc(C=O)c(OCc2cccnc2-c2ccnn2CC2CCCCC2)cn1 [Compound 197, 5-((2-(1-(cyclohexylmethyl)-1H-pyrazol-5-yl)pyridin-3-yl)methoxy)-2-methoxyisonicotinaldehyde]	–	–	–	–	† (activity ≥40% but ≤80%)	+++ (a delta p50% of 50 or greater)	–	++ (a delta p50% of between 30 and 50)	+ (a delta R of between 0 and 30)
COc1cc(C=O)c(OCc2cccnc2-c2ccnn2C2CCCC2)cn1 [Compound 198, 5-((2-(1-cyclopentyl-1H-pyrazol-5-yl)pyridin-3-yl)methoxy)-2-methoxyisonicotinaldehyde]	–	–	–	–	† (activity ≥40% but ≤80%)	+++ (a delta p50% of 50 or greater)	++ (a delta R of between 30 and 50)	+++ (a delta p50% of 50 or greater)	–
COc1cc(C=O)c(OCc2cccnc2-c2ccnn2CC(=O)O)cn1 [Compound 199, 2-(5-(3-((4-formyl-6-methoxypyridin-3-yloxy)methyl)pyridin-2-yl)-1H-pyrazol-1-yl)acetic acid]	–	–	–	–	††† (activity >120% but ≤140%)	+ (a delta p50% of between 0 and 29)	–	+++ (a delta p50% of 50 or greater)	+ (a delta R of between 0 and 30)
COc1cc(C=O)c(OCc2cccnc2-c2ccnn2CCC(=O)O)cn1 [Compound 202, 3-(5-(3-(((4-formyl-6-methoxypyridin-3-yl)oxy)methyl)pyridin-2-yl)-1H-pyrazol-1-yl)propanoic acid]	–	–	–	–	††† (activity >120% but ≤140%)	+ (a delta p50% of between 0 and 29)	–	+++ (a delta p50% of 50 or greater)	+ (a delta R of between 0 and 30)
CS(=O)(=O)NC(=O)c1ccc(COc2cnccc2C=O)nc1 [Compound 206, 2,2,2-trifluoroacetic acid:6-(((4-formylpyridin-3-yl)oxy)methyl)-N-(methylsulfonyl)nicotinamide (2:1)]	102 to 104	–	–	–	††† (activity >120% but ≤140%)	+++ (a delta p50% of 50 or greater)	–	–	+ (a delta R of between 0 and 30)
